Assay results from article doi:10.1101/636423v1 (biorxiv, 2019).

Key:
Experiment in all cases: DiFMUP hydrolysis, fluorogenic phosphatase assay
Assay type in all cases: biochemical
[1] = target: PTPRZ-ΔD2 (ΔD2 mutant of PTPRZ-ICR) (Rattus norvegicus, UniProt Q62656); conditions: substrate DiFMUP; competitive; also bound 1:1 in native MS
[2] = target: rat PTPRZ-D1D2 (PTPRZ-ICR) (Rattus norvegicus, UniProt Q62656); conditions: substrate DiFMUP; competitive; also bound 1:1 to monomer in native MS
[3] = target: rat PTPRZ-D1D2 (PTPRZ-ICR) (Rattus norvegicus, UniProt Q62656, D2178K/D2179K); conditions: substrate DiFMUP; competitive; also bound 1:1 in native MS
rat PTPRZ-D1D2 (PTPRZ-ICR) (Rattus norvegicus, UniProt Q62656, D2178K/D2179K), sequence (Q62656 1699-2316 D2178K/D2179K): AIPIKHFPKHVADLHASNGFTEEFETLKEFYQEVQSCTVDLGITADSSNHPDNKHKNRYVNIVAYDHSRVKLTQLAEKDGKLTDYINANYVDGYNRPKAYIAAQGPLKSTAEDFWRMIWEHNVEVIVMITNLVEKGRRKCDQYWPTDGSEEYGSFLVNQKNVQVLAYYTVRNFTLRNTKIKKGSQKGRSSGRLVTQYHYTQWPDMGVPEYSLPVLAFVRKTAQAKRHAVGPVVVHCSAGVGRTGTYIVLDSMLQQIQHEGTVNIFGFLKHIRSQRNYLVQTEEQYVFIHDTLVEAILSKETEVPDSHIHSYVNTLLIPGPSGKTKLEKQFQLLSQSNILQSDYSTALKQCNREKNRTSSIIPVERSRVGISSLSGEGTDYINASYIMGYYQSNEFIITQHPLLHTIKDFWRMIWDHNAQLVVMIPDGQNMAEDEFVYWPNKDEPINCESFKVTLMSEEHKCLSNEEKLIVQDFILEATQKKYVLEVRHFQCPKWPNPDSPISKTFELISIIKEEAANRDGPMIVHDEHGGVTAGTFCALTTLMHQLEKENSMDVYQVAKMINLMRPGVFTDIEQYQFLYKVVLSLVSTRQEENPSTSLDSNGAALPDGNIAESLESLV

rat PTPRZ-D1D2 (PTPRZ-ICR) (Rattus norvegicus, UniProt Q62656), sequence (Q62656 1699-2316): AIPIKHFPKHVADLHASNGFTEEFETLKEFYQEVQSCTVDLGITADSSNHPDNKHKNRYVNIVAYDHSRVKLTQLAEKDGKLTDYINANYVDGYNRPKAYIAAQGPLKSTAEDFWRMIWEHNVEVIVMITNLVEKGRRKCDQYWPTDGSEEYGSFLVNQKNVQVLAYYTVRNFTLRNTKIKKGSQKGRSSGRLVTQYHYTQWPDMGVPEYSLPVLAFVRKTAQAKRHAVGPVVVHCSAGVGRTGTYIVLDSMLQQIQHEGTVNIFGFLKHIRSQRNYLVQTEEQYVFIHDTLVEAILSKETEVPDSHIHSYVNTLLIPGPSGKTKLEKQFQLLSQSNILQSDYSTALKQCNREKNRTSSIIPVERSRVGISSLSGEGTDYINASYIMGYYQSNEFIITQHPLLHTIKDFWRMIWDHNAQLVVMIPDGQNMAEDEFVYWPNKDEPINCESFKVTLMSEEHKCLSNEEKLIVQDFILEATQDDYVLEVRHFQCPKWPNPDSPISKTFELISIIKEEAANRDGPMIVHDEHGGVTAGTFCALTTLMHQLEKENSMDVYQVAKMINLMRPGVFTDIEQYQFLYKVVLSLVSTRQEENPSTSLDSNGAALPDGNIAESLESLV

SCB4380
IC50 [1]: 400 nM | IC50 [2]: 380 nM | IC50 [3]: 370 nM
